In patent US5840725A, “Substituted oximes, hydrazones and olefins as neurokinin antagonists” (Schering Corporation, priority 1997, dated 1998) one finds inhibition and Ki data, which are given here for 9 molecules.

SMILES strings stand for the structures. pKi: −log10 of the molar value. Read-outs that look alike come from different tables or passages of the source.

In assay [1] the target is T1, human neurokinin 1 (NK1) receptor (Homo sapiens, UniProt P25103).
T1 construct: expressed in transfected cells; host or cells: Chinese Hamster ovary (CHO) cells
T1 sequence (P25103 whole entry): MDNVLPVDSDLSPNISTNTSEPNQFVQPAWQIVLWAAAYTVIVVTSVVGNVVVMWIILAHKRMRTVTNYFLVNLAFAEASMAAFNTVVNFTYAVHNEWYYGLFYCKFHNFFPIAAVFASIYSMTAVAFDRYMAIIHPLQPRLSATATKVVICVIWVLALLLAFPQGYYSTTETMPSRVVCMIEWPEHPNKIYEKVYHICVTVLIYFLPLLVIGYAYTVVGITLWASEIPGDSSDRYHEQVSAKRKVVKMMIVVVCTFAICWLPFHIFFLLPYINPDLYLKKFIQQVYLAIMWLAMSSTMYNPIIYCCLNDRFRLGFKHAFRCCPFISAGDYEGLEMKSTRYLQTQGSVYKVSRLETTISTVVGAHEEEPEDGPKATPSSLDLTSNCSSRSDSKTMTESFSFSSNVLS
The assay is described as follows: Neurokinin Receptor Binding Assay, NK1. Here is the method:
(§1) Neurokinin Receptor Binding Assay(s)
(§2) Chinese Hamster ovary (CHO) cells transfected with the coding regions for the human neurokinin 1 (NK1) of the human neurokinin 2 (NK2) receptors are grown in Dulbecco's minimal essential medium supplemented with 10% fetal calf serum, 0.1 mM non-essential amino acids, 2 mM glutamine, 100units/ml of penicillin and streptomycin, and 0.8 mg of G418/ml at 37° C. in a humidified atmosphere containing 5% CO2.
(§3) Cells are detached from T-175 flasks with a sterile solution containing 5 mM EDTA in phosphate buffered saline. Cells are harvested by centrifugation and washed in RPMl media at […] for 5 minutes. The pellet is resuspended inTris-HCl (pH7.4) containing 1 uM phsphoramidon and 4 ug/ml of chymostatin at a cell density of 30×10^6 cells/ml. The suspension is then homogenized in a Brinkman Polytron (setting 5) for 30-45 seconds. The homogenate is centrifuged at 800×g for 5 min at 4° C. to collect unbroken cells and nuclei. The supernatant is centrifuged in a Sorvall RC5C at 19,000 rpm ([…]) for 30 min at 4° C. The pellet is resuspended, an aliquot is removed for a protein determination (BCA) and washed again. The resulting pellet is stored at -80° C.
(§4) To assay receptor binding, 50 μl of [^3 H]-Substance P (9-Sar, 11 -Met) (specific activity 41 Ci/mmol) (Dupont-NEN) (0.8 nM for the NK-1 assay) or [^3 H]-Neurokinin A (specific activity 114 Ci/mmole) (Zenca) (1.0 nM for the NK-2 assay) is added to tubes containing buffer (50 mM Tris-HCl (pH 7.4) with 1 mM MnCl2 and 0.2% Bovine Serum Albumin) and either DMSO or test compound. Binding is initiated by the addition of 100 μl of membrane (10-20 μg) containing the human NK-1 or NK-2 receptor in a final volume of 200 μl. After 40 minutes at room temperature, the reaction is stopped by rapid filtration onto Whatman GF/C filters which have been presoaked in 0.3% polyethylenimine. Filters are washed 2 times with 3 ml of 50 mM Tris-HCl (pH7.4). Filters are added to 6 mIs of Ready-Safe liquid scintillation cocktail and quantified by liquid scintillation spectrometry in a LKB 1219 RackBeta counter. Non-specific binding is determined by the addition of either 1 μM of CP-99994 (NK-1) or 1 μM SR-48968 (NK-2) (both synthesized by the chemistry department of Schering-Plough Research Institute). IC50 values are determined from competition binding curves and Ki values are determined according to Cheng and Prusoff using the experimentally determined value of 0.8 nM for the NK-1 receptor and 2.4 nM for the NK-2 receptor.
(§5) % Inhibition is the difference between the percent of maximum specific binding (MSB) and 100%. The percent of MSB is defined by the following equation, wherein "dpm" is disintegrations per minute: [formula]

Assay [2] concerns the target T2, human neurokinin 2 (NK2) receptor (Homo sapiens, UniProt P21452).
T2 construct: expressed in transfected cells; host or cells: Chinese Hamster ovary (CHO) cells
T2 sequence (P21452 1-398): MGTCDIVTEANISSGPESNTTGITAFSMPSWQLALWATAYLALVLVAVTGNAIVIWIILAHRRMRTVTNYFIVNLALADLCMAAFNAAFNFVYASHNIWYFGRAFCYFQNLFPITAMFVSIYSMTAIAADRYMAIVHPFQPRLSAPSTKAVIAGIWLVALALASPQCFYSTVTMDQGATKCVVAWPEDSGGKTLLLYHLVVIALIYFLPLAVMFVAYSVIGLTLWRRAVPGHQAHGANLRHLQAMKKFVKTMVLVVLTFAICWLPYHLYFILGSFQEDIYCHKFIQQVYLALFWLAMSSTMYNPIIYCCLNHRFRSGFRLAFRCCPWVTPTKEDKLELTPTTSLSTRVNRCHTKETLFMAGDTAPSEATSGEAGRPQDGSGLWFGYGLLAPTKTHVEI
Nature of the assay: Neurokinin Receptor Binding Assay, NK2. The settings on record: for inhibition at 1 µM: read-out: % Inhibition NK2 (1 μM dose). Here is the method: as §1, §2, §3, §4, §5

The next assay has as its target T3, NK3 (Homo sapiens, UniProt P29371).
T3 sequence (P29371 1-465): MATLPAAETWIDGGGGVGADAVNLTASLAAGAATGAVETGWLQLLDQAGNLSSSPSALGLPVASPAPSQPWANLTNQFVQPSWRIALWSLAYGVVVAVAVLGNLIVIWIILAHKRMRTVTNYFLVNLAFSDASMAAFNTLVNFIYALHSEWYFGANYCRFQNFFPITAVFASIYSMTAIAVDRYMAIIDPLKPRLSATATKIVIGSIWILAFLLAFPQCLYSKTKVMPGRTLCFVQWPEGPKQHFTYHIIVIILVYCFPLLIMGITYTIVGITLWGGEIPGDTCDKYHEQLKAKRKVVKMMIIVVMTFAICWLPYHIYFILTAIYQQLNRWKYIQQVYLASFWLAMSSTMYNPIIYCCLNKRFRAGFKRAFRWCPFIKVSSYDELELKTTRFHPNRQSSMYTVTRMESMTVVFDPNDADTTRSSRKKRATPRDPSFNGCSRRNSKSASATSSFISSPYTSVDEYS
The assay is described as follows: NK3 activity (procedure similar to literature). The class given is binding. Here is the method:
NK3 activity is determined by following a procedure similar to that described in the literature, e.g., Molecular PharmacoL, 48 (1995), p. 711-716.

Where [3] appears, read: [3H]-Substance P, CHO cell membranes.
The mark [4] stands for this setting: [3H]-Substance P, CHO cell membranes, read-out: Ki (NK1).
Where [5] appears, read: 1 μM dose, [3H]-Neurokinin A, CHO cell membranes.
Setting [6] is: [3H]-Neurokinin A, CHO cell membranes, read-out: Ki (NK2).

Usually inhibition stands for the share of the control response that was lost under treatment. One may read the pKi as −log10 of the Ki, conventionally taken in molar units. As to `CCOC(=O)C=C(COCc1cc(C(F)(F)F)cc(C(F)(F)F)c1)C(CCN1CCC(O)(c2ccccc2)CC1)c1ccc(Cl)c(Cl)c1` (stereo not shown) [Example 2], the values for the inhibition at 1 µM in assay [1] (setting [3]) and in assay [2] (setting [5]) were 69% and 17%, respectively. The pKi in assay [1] (setting [4]) was 7.40.

Take `CON=C(COCc1noc(C(C)(C)C)n1)C(CCN1CCC(O)(c2ccccc2)CC1)c1ccc(Cl)c(Cl)c1` (stereo not shown) [Example 22AL]: the inhibition at 1 µM is 12% in assay [1] (setting [3]) and 100% in assay [2] (setting [5]). Moreover, the pKi in assay [2] (setting [6]) is 8.70.

Regarding `OCCN(CC=C(COCc1cc(C(F)(F)F)cc(C(F)(F)F)c1)C(CCN1CCC(O)(c2ccccc2)CC1)c1ccc(Cl)c(Cl)c1)CCO` (stereo not shown) [Example 35C], the inhibition at 1 µM in assay [1] (setting [3]) worked out at 93%; in assay [2] (setting [5]), 0%. For the same molecule, the pKi in assay [1] (setting [4]) was 8.70.

Turning to `CN1CCN(N=C(COCc2cc(C(F)(F)F)cc(C(F)(F)F)c2)C(CCN2CCC(O)(c3ccccc3)CC2)c2ccc(Cl)c(Cl)c2)CC1` (stereo not shown) [Example 7], the inhibition at 1 µM stood at 69% in assay [1] (setting [3]) and 13% in assay [2] (setting [5]). Also, the pKi in assay [1] (setting [4]) is 6.92.

As to `CON=C(COCc1cc(C(F)(F)F)cc(C(F)(F)F)c1)C(CCN1CCC(C(=O)N2CCCC2)CC1)c1ccc(Cl)c(Cl)c1` (stereo not shown) [Example 42L], the inhibition at 1 µM in assay [1] (setting [3]) came to 91%; in assay [2] (setting [5]), 86%. The pKi is 8.34 in assay [1] (setting [4]) and 6.91 in assay [2] (setting [6]).

In the case of `NC(CON=C(COCc1cc(C(F)(F)F)cc(C(F)(F)F)c1)C(CCN1CCC(N2CCCCC2)CC1)c1ccc(Cl)c(Cl)c1)=NO` (stereo not shown) [Example 39F], the inhibition at 1 µM in assay [1] (setting [3]) was found to be 93%; in assay [2] (setting [5]), 96%. The pKi was 8.37 in assay [1] (setting [4]) and 7.92 in assay [2] (setting [6]).

As for `CON=C(COCc1cc(C(F)(F)F)cc(C(F)(F)F)c1)C(CCN1CCC(O)(c2ccccc2)CC1)c1ccc(Cl)c(Cl)c1` (stereo not shown) [Example 1], the negative-log Ki (pKi) is 7.60 in assay [1], 7.70 in assay [2] and 6.96 at NK3. For the same molecule, the inhibition at 1 µM in assay [1] (setting [3]) came to 88%; in assay [2], 95%.

With `CON=C(COCc1cccc(C)c1F)C(CCN1CCC(O)(c2ccccc2)CC1)c1ccc(Cl)c(Cl)c1` (stereo not shown) [Example 22AK], the inhibition at 1 µM in assay [1] (setting [3]) stood at 67%; in assay [2] (setting [5]), 95%. In addition, the negative logarithm of the Ki (pKi) in assay [1] (setting [4]) was 6.88; in assay [2] (setting [6]), 8.70.

On to `OC1(c2ccccc2)CCN(CCC(C(COCc2cc(C(F)(F)F)cc(C(F)(F)F)c2)=NOCc2ccccc2)c2ccc(Cl)c(Cl)c2)CC1` (stereo not shown) [Example 1C], for which the results for the inhibition at 1 µM in assay [1] (setting [3]) and in assay [2] (setting [5]) were 44% and 16%, respectively.
